Results as given in PMC5356311, “Experimental recreation of the evolution of lignin-degrading enzymes from the Jurassic to date” (Biotechnology for Biofuels, 2017).
Where two headings read alike, the source gives them in different places. Blank lines part the entries; values can stand above or below the molecule they belong to.

Experiments:
[1] = tested on: CaPo-tris; conditions: saturating H2O2, 0.1 M tartrate, 25 °C; low efficiency site (heme channel)
[2] = tested on: CaCD; conditions: read-out: CaCD; 0.4 mM H2O2, 0.1 M tartrate, pH 3.5, 25 °C; low efficiency site (heme channel)
[3] = tested on: ALiP; conditions: read-out: ALiP; 0.2 mM H2O2, 0.1 M tartrate, pH 3.5, 25 °C; high efficiency site (exposed Trp)
[4] = tested on: AVP; test: steady-state kinetics, spectrophotometric ([…] nm); assay type: biochemical, ancestral sequence (Polyporales, reconstructed); conditions: 0.4 mM H2O2, 0.1 M tartrate, pH 3.5, 25 °C; biphasic kinetics, high efficiency site (exposed Trp)
[5] = tested on: CaPo-bis; conditions: saturating H2O2, 0.1 M tartrate, 25 °C; low efficiency site (heme channel)
[6] = tested on: ALiP; test: steady-state kinetics, spectrophotometric ([…] nm); assay type: biochemical, ancestral sequence (Polyporales, reconstructed); conditions: 0.2 mM H2O2, 0.1 M tartrate, pH 3.0, 25 °C; high efficiency site (exposed Trp)
[7] = tested on: AVP; test: steady-state kinetics, spectrophotometric ([…] nm); assay type: biochemical, ancestral sequence (Polyporales, reconstructed); conditions: 0.4 mM H2O2, 0.1 M tartrate, pH 3.0, 25 °C; biphasic kinetics, high efficiency site (exposed Trp)
[8] = tested on: CaCD; test: steady-state kinetics, spectrophotometric ([…] nm); assay type: biochemical, ancestral sequence (Polyporales, reconstructed); conditions: 0.4 mM H2O2, 0.1 M tartrate, pH 3.0, 25 °C; low efficiency site (heme channel)
[9] = tested on: CaPo; test: steady-state kinetics, spectrophotometric ([…] nm); assay type: biochemical, ancestral sequence (Polyporales, reconstructed); conditions: 0.4 mM H2O2, 0.1 M tartrate, pH 2, 25 °C; low efficiency site (heme channel)
[10] = tested on: AVP; test: steady-state kinetics, spectrophotometric ([…] nm); assay type: biochemical, ancestral sequence (Polyporales, reconstructed); conditions: 0.4 mM H2O2, 0.1 M tartrate, pH 3, 25 °C; exposed Trp site
[11] = tested on: ALiP; test: steady-state kinetics, spectrophotometric ([…] nm); assay type: biochemical, ancestral sequence (Polyporales, reconstructed); conditions: 0.2 mM H2O2, 0.1 M tartrate, pH 3, 25 °C; exposed Trp site
[12] = tested on: AVP; test: steady-state kinetics, spectrophotometric ([…] nm); assay type: biochemical, ancestral sequence (Polyporales, reconstructed); conditions: 0.4 mM H2O2, 0.1 M tartrate, pH 3.5, 25 °C; exposed Trp site
[13] = tested on: ALiP; test: steady-state kinetics, spectrophotometric ([…] nm); assay type: biochemical, ancestral sequence (Polyporales, reconstructed); conditions: 0.2 mM H2O2, 0.1 M tartrate, pH 3.0, 25 °C; exposed Trp site
[14] = substrate: COc1ccc(CO)cc1OC; test: purified protein; assay type: biochemical, Phanerodontia chrysosporium; conditions: 0.1 mM H2O2, 0.1 M tartrate, pH 3.0, 25 °C, exposed Trp site
[15] = substrate: CCn1c(=NN=c2sc3cc(S(=O)(=O)O)ccc3n2CC)sc2cc(S(=O)(=O)O)ccc21; test: purified protein; assay type: biochemical, Phanerodontia chrysosporium; conditions: 0.1 mM H2O2, 0.1 M tartrate, pH 3.5, 25 °C, high efficiency site (exposed Trp)
[16] = substrate: COc1cccc(OC)c1O; test: purified protein; assay type: biochemical, Phanerodontia chrysosporium; conditions: 0.1 mM H2O2, 0.1 M tartrate, pH 3.0, 25 °C, high efficiency site (exposed Trp)

Molecule: COc1cccc(OC)c1O [DMP]
Km [6]: 34 ± 5.4 µM | Km [7]: 5.3 ± 1.1 µM | Km [8]: 66800 µM | Km [9]: 32900 µM

Molecule: COc1ccc(CO)cc1OC [VA]
Km [12]: 299 ± 104 µM | Km [13]: 773 ± 155 µM

B1: LiPH8 (Phanerodontia chrysosporium) (protein)
chain: ATCSNGKTVGDASCCAWFDVLDDIQQNLFHGGQCGAEAHESIRLVFHDSIAISPAMEAQGKFGGGGADGSIMIFDDIETAFHPNIGLDEIVKLQKPFVQKHGVTPGDFIAFAGRVALSNCPGAPQMNFFTGRAPATQPAPDGLVPEPFHTVDQIINRVNDAGEFDELELVWMLSAHSVAAVNDVDPTVQGLPFDSTPGIFDSQFFVETQLRGTAFPGSGGNQGEVESPLPGEIRIQSDHTIARDSRTACEWQSFVNNQSKLVDDFQFIFLALTQLGQDPNAMTDCSDVIPQSKPIPGNLPFSFFPAGKTIKDVEQACAETPFPTLTTLPGPETSVQRIPPPPGA
Km [14]: 79.3 ± 18 µM | kcat [14]: 16.2 ± 0.8 s⁻¹ | kcat/Km [14]: 205000 ± 4000 M⁻¹ s⁻¹ | Km [15]: 21.3 ± 2.3 µM | kcat [15]: 6.5 ± 0.2 s⁻¹ | kcat/Km [15]: 300000 ± 25000 M⁻¹ s⁻¹ | Km [16]: 4.0 ± 0.07 µM

More lines, now with the values ahead:

Km [1]: 807 ± 104 µM | Km [2]: 1280 ± 350 µM | Km [3]: 13.7 ± 3.5 µM | Km [4]: 5.4 ± 0.7 µM | Km [5]: 1390 ± 345 µM
Molecule: CCn1c(=NN=c2sc3cc(S(=O)(=O)O)ccc3n2CC)sc2cc(S(=O)(=O)O)ccc21 [ABTS]

Km [10]: 4.8 ± 0.8 µM | Km [11]: 12.6 ± 3.6 µM
Molecule: Nc1c(N=Nc2ccc(S(=O)(=O)CCOS(=O)(=O)O)cc2)c(S(=O)(=O)O)cc2cc(S(=O)(=O)O)c(N=Nc3ccc(S(=O)(=O)CCOS(=O)(=O)O)cc3)c(O)c12 [RB5]
